Laboratory results: patent publication US6358885B1, “Substituted phenylheterocyclic herbicides” (Mississippi State University, priority 1992, dated 2002)

Experiments:
bedstraw [1] = assay: Test B preemergence/postemergence greenhouse plant response rating 0 to 10; assay type: in vivo, Galium aparine; conditions: POSTEMERGENCE; for Plant response rating, Bedstraw: 0 to 10 scale
In short: (§1)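 Test chemicals were sprayed onto freshly planted seed and, concurrently, onto young plants between the one and four leaf stage. After a twelve- to sixteen-day greenhouse period, each species was visually compared with untreated controls.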

chickweed = assay: as above; assay type: in vivo, Stellaria media; conditions: 0 to 10 scale
In short: as §1

corn [2] = assay: as above; assay type: in vivo, Zea mays; conditions: for Plant response rating, Corn: 0 to 10 scale
In short: as §1

sugar beet = assay: as above; assay type: in vivo, Beta vulgaris; conditions: 0 to 10 scale
In short: as §1

wild buckwheat = assay: as above; assay type: in vivo, Polygonum convolvulus; conditions: 0 to 10 scale
In short: as §1

bedstraw [3] = assay: Test C preemergence/postemergence greenhouse plant response rating 0 to 100; assay type: in vivo, Galium aparine; conditions: POSTEMERGENCE; for Plant response rating, Bedstraw: 62 g/ha, 0 to 100 scale
In short: (§2)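 Compounds in non-phytotoxic solvent went onto sandy loam before emergence (seeded one day earlier) or onto plants at the one-to-four leaf stage. Duck salad was treated via flood water (~2.5 cm, maintained) over silt loam.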

corn [4] = assay: as above; assay type: in vivo, Zea mays; conditions: POSTEMERGENCE; for Plant response rating, Corn: 62 g/ha, 0 to 100 scale
In short: as §2

cotton = assay: as above; assay type: in vivo, Gossypium hirsutum; conditions: POSTEMERGENCE; for Plant response rating, Cotton: 62 g/ha, 0 to 100 scale
In short: as §2

downy brome = assay: as above; assay type: in vivo, Bromus tectorum; conditions: POSTEMERGENCE; for Plant response rating Downy Brome: 62 g/ha, 0 to 100 scale
In short: as §2

giant foxtail = assay: as above; assay type: in vivo, Setaria faberii; conditions: POSTEMERGENCE; for Plant response rating, Giant foxtail: 62 g/ha, 0 to 100 scale
In short: as §2

morningglory = assay: as above; assay type: in vivo, Ipomoea hederacea; conditions: POSTEMERGENCE; for Plant response rating, Morningglory: 62 g/ha, 0 to 100 scale
In short: as §2

sorghum = assay: as above; assay type: in vivo, Sorghum bicolor; conditions: POSTEMERGENCE; for Plant response rating, Sorghum: 62 g/ha, 0 to 100 scale
In short: as §2

velvetleaf = assay: as above; assay type: in vivo, Abutilon theophrasti; conditions: POSTEMERGENCE; for Plant response rating, Velvetleaf: 62 g/ha, 0 to 100 scale
In short: as §2

wheat = assay: as above; assay type: in vivo, Triticum aestivum; conditions: POSTEMERGENCE; for Plant response rating, Wheat: 62 g/ha, 0 to 100 scale
In short: as §2

wild oat = assay: as above; assay type: in vivo, Avena fatua; conditions: POSTEMERGENCE; for Plant response rating, Wild oat: 62 g/ha, 0 to 100 scale
In short: as §2

duck salad = assay: Test C flood test plant response rating 0 to 100; assay type: in vivo, Heteranthera limosa; conditions: for Plant response rating Duck salad: flood test species listed under POSTEMERGENCE, 62 g/ha, 0 to 100 scale
In short: as §2

barnyardgrass = assay: Test C flood test plant response rating 0 to 100; assay type: in vivo, Echinochloa crus-galli; conditions: for Plant response rating, Barnyardgrass: flood test species listed under POSTEMERGENCE, 62 g/ha, 0 to 100 scale
In short: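 Compounds in non-phytotoxic solvent applied preemergence to sandy loam one day after planting, postemergence at the 1–4 leaf stage, or to ~2.5 cm floodwater over silt loam.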

[5] = POSTEMERGENCE section, flood test, Rate 1 g/ha
[6] = POSTEMERGENCE section, flood test, Rate 4 g/ha
[7] = Rate 16 g/ha, under POSTEMERGENCE head (flood test species)
[8] = Rate 4 g/ha, under POSTEMERGENCE head (flood test species)

## CCCN1C(=O)COc2cc(F)c(-c3nn4c(c3Cl)CCCC4)cc21 [Compound 32]
Bedstraw [1]; Rate 10 g/ha
  Plant response rating, Bedstraw: 8
Bedstraw [1]; Rate 50 g/ha
  Plant response rating (0 to 10 scale), Bedstraw: 10
chickweed; POSTEMERGENCE, Rate 10 g/ha
  Plant response rating, Chickweed: 10
chickweed; PREEMERGENCE, Rate 10 g/ha
  Plant response rating, Chickweed: 0
Corn [2]; POSTEMERGENCE, Rate 10 g/ha
  Plant response rating, Corn: 3
Corn [2]; POSTEMERGENCE, Rate 50 g/ha
  Plant response rating (0 to 10 scale), Corn: 4
Corn [2]; PREEMERGENCE, Rate 50 g/ha
  Plant response rating, Corn: 0
Sugar beet; POSTEMERGENCE, Rate 10 g/ha
  Plant response rating, Sugar beet: 10
Sugar beet; POSTEMERGENCE, Rate 50 g/ha
  Plant response rating, Sugar beet: 10
Sugar beet; PREEMERGENCE, Rate 50 g/ha
  Plant response rating, Sugar beet: 7
Wild buckwheat; POSTEMERGENCE, Rate 10 g/ha
  Plant response rating, Wild buckwheat: 9
Wild buckwheat; POSTEMERGENCE, Rate 50 g/ha
  Plant response rating, Wild buckwheat: 10
Wild buckwheat; PREEMERGENCE, Rate 50 g/ha
  Plant response rating, Wild buckwheat: 8
Bedstraw [3]
  Plant response rating, Bedstraw: 100
Bedstraw [3]; Rate 1 g/ha
  Plant response rating (0 to 100), Bedstraw: 85
Bedstraw [3]; Rate 4 g/ha
  Plant response rating (0 to 100), Bedstraw: 90
Bedstraw [3]; Rate 16 g/ha
  Plant response rating (0 to 100), Bedstraw: 100
Corn [4]
  Plant response rating, Corn: 50
Corn [4]; Rate 1 g/ha
  Plant response rating (0 to 100), Corn: 20
Corn [4]; Rate 4 g/ha
  Plant response rating (0 to 100), Corn: 30
Corn [4]; Rate 16 g/ha
  Plant response rating (0 to 100), Corn: 40
cotton
  Plant response rating, Cotton: 100
cotton; Rate 1 g/ha
  Plant response rating (0 to 100), Cotton: 95
cotton; Rate 4 g/ha
  Plant response rating (0 to 100), Cotton: 100
cotton; Rate 16 g/ha
  Plant response rating (0 to 100), Cotton: 100
Downy brome
  Plant response rating Downy Brome: 50
Downy brome; Rate 1 g/ha
  Plant response rating (0 to 100), Downy Brome: 20
Downy brome; Rate 4 g/ha
  Plant response rating (0 to 100), Downy Brome: 30
Downy brome; Rate 16 g/ha
  Plant response rating (0 to 100), Downy Brome: 40
Giant foxtail
  Plant response rating, Giant foxtail: 70
Giant foxtail; Rate 1 g/ha
  Plant response rating (0 to 100), Giant foxtail: 20
Giant foxtail; Rate 4 g/ha
  Plant response rating (0 to 100), Giant foxtail: 30
Giant foxtail; Rate 16 g/ha
  Plant response rating (0 to 100), Giant foxtail: 50
morningglory
  Plant response rating, Morningglory: 100
morningglory; Rate 1 g/ha
  Plant response rating (0 to 100), Morningglory: 50
morningglory; Rate 4 g/ha
  Plant response rating (0 to 100), Morningglory: 70
morningglory; Rate 16 g/ha
  Plant response rating (0 to 100), Morningglory: 100
sorghum
  Plant response rating, Sorghum: 60
sorghum; Rate 1 g/ha
  Plant response rating (0 to 100), Sorghum: 30
sorghum; Rate 4 g/ha
  Plant response rating (0 to 100), Sorghum: 40
sorghum; Rate 16 g/ha
  Plant response rating (0 to 100), Sorghum: 50
velvetleaf
  Plant response rating, Velvetleaf: 100
velvetleaf; Rate 1 g/ha
  Plant response rating (0 to 100), Velvetleaf: 100
velvetleaf; Rate 16 g/ha
  Plant response rating (0 to 100), Velvetleaf: 100
wheat
  Plant response rating, Wheat: 50
wheat; Rate 1 g/ha
  Plant response rating (0 to 100), Wheat: 10
wheat; Rate 4 g/ha
  Plant response rating (0 to 100), Wheat: 30
wheat; Rate 16 g/ha
  Plant response rating (0 to 100), Wheat: 30
Wild oat
  Plant response rating, Wild oat: 50
Wild oat; Rate 1 g/ha
  Plant response rating (0 to 100), Wild oat: 20
Wild oat; Rate 4 g/ha
  Plant response rating (0 to 100), Wild oat: 30
Wild oat; Rate 16 g/ha
  Plant response rating (0 to 100), Wild oat: 30
Duck salad; [5]
  Plant response rating (0 to 100), Duck salad: 0
Duck salad; [6]
  Plant response rating (0 to 100), Duck salad: 0
Duck salad; [7]
  Plant response rating (0 to 100), Duck salad: 30
Duck salad
  Plant response rating Duck salad: 60
barnyardgrass; [5]
  Plant response rating (0 to 100), Barnyardgrass: 30
barnyardgrass; [8]
  Plant response rating (0 to 100), Barnyardgrass: 55
barnyardgrass; [7]
  Plant response rating (0 to 100), Barnyardgrass: 100
barnyardgrass
  Plant response rating, Barnyardgrass: 100

## C=CCN1C(=O)COc2cc(F)c(-c3nn4c(c3Cl)CCCC4)cc21 [Compound 33]
Bedstraw [1]; Rate 10 g/ha
  Plant response rating, Bedstraw: 8
Bedstraw [1]; Rate 50 g/ha
  Plant response rating, Bedstraw: 9
chickweed; POSTEMERGENCE, Rate 10 g/ha
  Plant response rating, Chickweed: 10
chickweed; POSTEMERGENCE, Rate 50 g/ha
  Plant response rating, Chickweed: 10
Corn [2]; POSTEMERGENCE, Rate 10 g/ha
  Plant response rating, Corn: 3
Corn [2]; POSTEMERGENCE, Rate 50 g/ha
  Plant response rating, Corn: 4
Corn [2]; PREEMERGENCE, Rate 50 g/ha
  Plant response rating, Corn: 0
Sugar beet; POSTEMERGENCE, Rate 10 g/ha
  Plant response rating, Sugar beet: 10
Sugar beet; POSTEMERGENCE, Rate 50 g/ha
  Plant response rating, Sugar beet: 10
Sugar beet; PREEMERGENCE, Rate 50 g/ha
  Plant response rating, Sugar beet: 10
Wild buckwheat; POSTEMERGENCE, Rate 10 g/ha
  Plant response rating, Wild buckwheat: 10
Wild buckwheat; POSTEMERGENCE, Rate 50 g/ha
  Plant response rating, Wild buckwheat: 10
Bedstraw [3]
  Plant response rating, Bedstraw: 100
Bedstraw [3]; Rate 1 g/ha
  Plant response rating (0 to 100), Bedstraw: 80
Bedstraw [3]; Rate 4 g/ha
  Plant response rating (0 to 100), Bedstraw: 90
Bedstraw [3]; Rate 16 g/ha
  Plant response rating (0 to 100), Bedstraw: 100
Corn [4]
  Plant response rating, Corn: 40
Corn [4]; Rate 1 g/ha
  Plant response rating (0 to 100), Corn: 20
Corn [4]; Rate 4 g/ha
  Plant response rating (0 to 100), Corn: 30
Corn [4]; Rate 16 g/ha
  Plant response rating (0 to 100), Corn: 30
cotton
  Plant response rating, Cotton: 100
cotton; Rate 1 g/ha
  Plant response rating (0 to 100), Cotton: 100
cotton; Rate 4 g/ha
  Plant response rating (0 to 100), Cotton: 100
cotton; Rate 16 g/ha
  Plant response rating (0 to 100), Cotton: 100
Downy brome
  Plant response rating Downy Brome: 60
Downy brome; Rate 1 g/ha
  Plant response rating (0 to 100), Downy Brome: 30
Downy brome; Rate 4 g/ha
  Plant response rating (0 to 100), Downy Brome: 40
Downy brome; Rate 16 g/ha
  Plant response rating (0 to 100), Downy Brome: 60
Giant foxtail
  Plant response rating, Giant foxtail: 70
Giant foxtail; Rate 1 g/ha
  Plant response rating (0 to 100), Giant foxtail: 0
Giant foxtail; Rate 4 g/ha
  Plant response rating (0 to 100), Giant foxtail: 0
Giant foxtail; Rate 16 g/ha
  Plant response rating (0 to 100), Giant foxtail: 20
morningglory
  Plant response rating, Morningglory: 100
morningglory; Rate 1 g/ha
  Plant response rating (0 to 100), Morningglory: 50
morningglory; Rate 4 g/ha
  Plant response rating (0 to 100), Morningglory: 70
morningglory; Rate 16 g/ha
  Plant response rating (0 to 100), Morningglory: 90
sorghum
  Plant response rating, Sorghum: 40
sorghum; Rate 1 g/ha
  Plant response rating (0 to 100), Sorghum: 0
sorghum; Rate 4 g/ha
  Plant response rating (0 to 100), Sorghum: 20
sorghum; Rate 16 g/ha
  Plant response rating (0 to 100), Sorghum: 20
velvetleaf
  Plant response rating, Velvetleaf: 100
velvetleaf; Rate 1 g/ha
  Plant response rating (0 to 100), Velvetleaf: 70
velvetleaf; Rate 4 g/ha
  Plant response rating (0 to 100), Velvetleaf: 100
velvetleaf; Rate 16 g/ha
  Plant response rating (0 to 100), Velvetleaf: 100
wheat
  Plant response rating, Wheat: 60
wheat; Rate 1 g/ha
  Plant response rating (0 to 100), Wheat: 30
wheat; Rate 4 g/ha
  Plant response rating (0 to 100), Wheat: 40
wheat; Rate 16 g/ha
  Plant response rating (0 to 100), Wheat: 50
Wild oat
  Plant response rating, Wild oat: 60
Wild oat; Rate 1 g/ha
  Plant response rating (0 to 100), Wild oat: 30
Wild oat; Rate 4 g/ha
  Plant response rating (0 to 100), Wild oat: 40
Wild oat; Rate 16 g/ha
  Plant response rating (0 to 100), Wild oat: 50
Duck salad; [5]
  Plant response rating (0 to 100), Duck salad: 0
Duck salad; [6]
  Plant response rating (0 to 100), Duck salad: 0
Duck salad; [7]
  Plant response rating (0 to 100), Duck salad: 65
Duck salad
  Plant response rating Duck salad: 80
barnyardgrass; [5]
  Plant response rating (0 to 100), Barnyardgrass: 35
barnyardgrass; [8]
  Plant response rating (0 to 100), Barnyardgrass: 65
barnyardgrass; [7]
  Plant response rating (0 to 100), Barnyardgrass: 95
barnyardgrass
  Plant response rating, Barnyardgrass: 100
